These results are taken from patent US6040149A, “Assay for identifying agents which act on the ceramide-activated protein kinase, kinase suppressor of ras, and methods of using said agents” (priority 1997, dated 2000).

Series [1] concerns YT cells. The series can be described thus: Ceramide generation in YT cells (preliminary). In kind it is cell-based, human.
The test system of series [2] is EL4 cells.
Series [3] deals with protein kinase C. Kind of series: Protein kinase C activity in EL-4 cells (lysine-rich histone phosphorylation). In kind it is cell-based, murine (EL-4 cells). As to conditions: membrane or cytosolic fractions.
In series [4] the test system is sphingomyelin pathway. Kind of series: Sphingomyelin, ceramide and CAP kinase activity in EL-4 cell-free system. In kind it is biochemical, murine (EL-4 cells). As to conditions: IL-1β 10 ng ml^-1. How it is done: IL-1β effects on sphingomyelin and ceramide levels (A) and ceramide-activated protein kinase activity (B) in a cell-free system. […] Thereafter, supernates (300 μg incubation^-1 in 25 μl) were added to a reaction mixture (total volume 250 μl) as described in FIG. 14. For studies measuring lipid levels, incubations were stopped by extraction of lipids into an organic phase and resolved as described in FIGS. 12 and 13. For studies measuring kinase activity, incubations contained EGFR peptide and [^32 P]ATP, and phosphorylated peptide was quantified as described in FIG. 14. Background activity was subtracted from each point. Values (mean) represent data from two experiments for sphingomyelin performed in triplicate, three experiments for ceramide performed in triplicate, and five experiments for ceramide-activated protein kinase activity performed in duplicate.
Early kinetics of activation of a potential signaling system provide some support that the pathway might be involved in the signaling process. However, signal transduction pathways are highly regulated and often interrelated. […] To provide additional support for tight coupling of the sphingomyelin pathway to activation of the IL-1β receptor, studies were performed with subcellular fractions derived from EL-4 cells. For these studies, supernates, collected after a low-speed centrifugation to remove nuclei, were first incubated with IL-1β for 10 minutes at 4° C. to permit formation of IL-1 receptor complexes. Thereafter, reactions were initiated by warming supernates to 22° C. in a reaction mixture containing Mg^2+ at pH 7.4. These conditions were adopted to allow for activation of endogenous neutral sphingomyelinase. For studies measuring kinase activity, reaction mixtures also contained [^32 P] ATP and EGFR peptide. […] In separate studies, a statistically significant reduction in sphingomyelin content (n=10) and elevation in ceramide content (n=6) were detected at 1 minute of stimulation (p<0.005 vs. control). […] These effects were quantitatively similar to those determined in the intact cells.

Series [5] relates to EL-4 cells. Kind of series: Sphingomyelin and ceramide levels in intact EL-4 cells. In kind it is cell-based, murine. The protocol:
IL-1β effects on sphingomyelin levels in EL4 cells. Time course (A) and dose response (B). Cells were grown to growth arrest (1-1.5×10^6 cells ml^-1) in DME/Ham's F12 medium (1:1, v/v) containing 10% horse serum and for 48 hours [^3 H]choline (1 μCi ml^-1). On the day of an experiment, cells were resuspended back into the same medium at 10×10^6 cells ml^-1 and stimulated with 40 ng ml^-1 IL-1β for the indicated times (A) or for 30 minutes with increasing concentrations of IL-1β (B). Human IL-1β may be obtained using methods well known to those skilled in the art. Reactions were terminated with CHCl3 :CH3 OH:HCl (100:100:1) containing 10 mM EDTA (82). Lipids in the organic phase extract were dried under N2 and subjected to mild alkaline hydrolysis (0.1 M methanolic KOH for 1 hour at 37° C.) to remove glycerophospholipids. Sphingomyelin was resolved by thin-layer chromatography (TLC) using CHCl3 :CH3 OH:CH3 COOH:H2 O (60:30:8:5) as solvent, identified by iodine vapor staining, and quantified by liquid scintillation spectrometry. As previously reported, the use of [^3 H]choline as a measure of sphingomyelin content was validated by simultaneous phospholipid phosphorus measurements. Each value represents the mean±SEM of triplicate determinations from four experiments in (A), and one representative of four similar studies performed in triplicate in (B).
Effect of IL-1β on ceramide levels in EL-4 cells. Cells were stimulated as in FIG. 12 with IL-1β (40 ng ml^-1) and ceramide contained within the organic phase extract quantified enzymatically using the E. coli diacylglycerol kinase reaction. Lipids were resolved by TLC using CHCl3 :CH3 OH:CH3 COOH (65/15/5) as solvent, autoradiographed and quantified by liquid scintillation spectrometry. Each value represents the mean±SEM of triplicate determinations from 10 experiments.
The murine thymoma EL-4 cell line is a well-defined IL-1 responsive cell line that expresses functional IL-1 receptors. Upon stimulation with IL-1, these cells up-regulate the IL-2 receptor and secrete IL-2 [62]. Initial studies were designed to investigate the effects of IL-1β on cellular sphingomyelin content. Cells, grown in Dulbecco's Modified Eagle's (DME)/Ham's F-12 medium containing 10% horse serum and [^3 H]choline (1 μCi ml^-1), were resuspended back into the same medium at 10×10^6 cells ml^-1 and stimulated with IL-1β. IL-1β is commercially available.

For series [6], the system named is ceramide-activated protein kinase. The series can be described thus: Ceramide-activated protein kinase activity (EGFR peptide) in EL-4 cell fractions. The protocol:
Effect of IL-1β on ceramide-activated protein kinase activity. […] Homogenates were centrifuged at 500×g for 5 minutes to remove nuclei and at 200,000×g for 30 minutes to prepare microsomal membranes. Membranes were resuspended into homogenizing buffer (2.2 μg membrane protein μl^-1). For assay of kinase activity, the reaction mixture contained 20 μl of microsomal membrane, 40 μl EGFR peptide (4 mg ml^-1 in 25 mM Hepes, pH 7.4) and 100 μl buffer (50 mM HEPES, pH 7.4, 20 mM MgCl2). Phosphorylation was initiated at 22° C. by addition of 40 μl [γ-^32 P] ATP (100 μM final concentration) and terminated at the indicated times by addition of 40 μl of 0.5 M ATP in 90% formic acid. Phosphorylated peptide was eluted from a C18 Sep pak cartridge (Millipore), lyophilized, and resolved by C18 reverse phase HPLC using a linear gradient of acetonitrile. […] All assays were performed under conditions determined as linear for time and enzyme concentration. Enzyme activity was determined from the percent conversion of substrate to product and the specific radioactivity of [γ-^32 P] ATP. […] Values (mean±range) represent duplicate determinations from two experiments.
Activity was measured by the transfer of ^32 P from the γ-position of ATP to EGFR peptide (AA 663-681 of the EGFR). The effect of IL-1β on kinase activity was determined using microsomal membranes derived from cells stimulated with IL-1β.

Setting [7] is: p<0.005 vs. control at 1 minute.

Turning to IL-1β: Human IL-1β, in series [1], the ceramide generation entry is listed as “rapid generation of ceramide”. In addition, in series [2] (24 h), the “IL-2 secretion in combination with TPA” value was “stimulated secretion maximally”. In addition, the “IL-2 secretion, +TPA” value in series [2] (with TPA 20 ng ml^-1, 24 h, nd = not detectable, mean ± range) was determined as 261 ± 2. Further, the “protein kinase C activity” value in series [3] is “not enhanced”. The “ceramide-activated protein kinase activity, cell-free” value in series [4] is on record as “increased”. In series [4] (setting [7]), the “ceramide content, cell-free” value was “quantitative increase in ceramide content” and the “sphingomyelin content, cell-free” value was “rapid reduction in sphingomyelin content”. Moreover, in series [5] (30 minutes), the “ED50 (sphingomyelin hydrolysis)” value was “≈ 2 ng ml^-1”, the “concentration of maximal effect (sphingomyelin hydrolysis)” value was 10 ng/mL and the “effective concentration (sphingomyelin hydrolysis)” value came to 0.01 ng/mL. The content of phosphatidylcholine result in series [5] (IL-1β) is reported as “unchanged”. The “onset of reduction in sphingomyelin content” value in series [5] (IL-1β 40 ng ml^-1) is at most 2 min. In addition, the ceramide content in series [5] (IL-1β 40 ng ml^-1, 2 minutes, from 360, p<0.005) came to 403 pmol 10^6 cells^-1. This substance registered a maximum ceramide content in series [5] (IL-1β 40 ng ml^-1, 15 minutes, from 360) of 450 pmol 10^6 cells^-1. The sphingomyelin content in series [5] (IL-1β 40 ng ml^-1, 30 minutes, baseline 800±14, mean±SEM, p<0.005) worked out at 648±16 pmol 10^6 cells^-1. Also, the “onset of ceramide increase” value in series [5] (separate studies (n=4)) is at most 30 s. For the same substance, in series [6], the “ED50 (kinase activity)” value is “≈ 2 ng ml^-1”, the “concentration of maximal effect (kinase activity)” value is 10 ng/mL and the “effective concentration (kinase activity)” value was 0.03 ng/mL. In series [6] (IL-1β 10 ng ml^-1), the “onset of increase in kinase activity” value is 30 s and the “time of maximal kinase activity” value came to 2 min. Besides, in series [6] (IL-1β 10 ng ml^-1, from 5), the kinase activity was found to be 11 pmol/min/mg. In addition, the “kinase activity, fold of control” value in series [6] (IL-1β 10 ng ml^-1, microsomal membranes, p<0.005) is on record as 2.1 fold of control. Besides, in series [6] (cytosolic fractions), the “cytosolic kinase activity toward EGFR peptide” value is “not enhanced”.
